Where two headings read alike, the source gives them in different places.
How the values were obtained:
[1] = Chelation-provoked urine test, urinary nickel; format: in vivo, human
Experimental: (§1) The terms “diagnostic provocation” and “chelation-provoked urine tests” and related terms refer to a procedure whereby the patient is administered one of more dosages of chelators, after which the patient's urine is collected for a defined period of time. The collected urine is analyzed for metal content, the metal having been removed from the patient's body by the chelators. The results of this procedure can indicate which metals are present in the patient's body and the approximate levels of the metals, which is subsequently used in designing a course of chelation therapy.
(§2) The metals may be measured with or without prior chelation provocation. The standard values accepted by medical laboratories are measured without chelation provocation. Treatment with chelation medication mobilizes metal stores within in the body to be detected in the urine, thus values obtained post-provocation will be increased.

[2] = Chelation-provoked urine test, urinary tungsten; format: in vivo, human; details: Case 7, 6 hour urine
Experimental: as §1, §2

[3] = Case 14
Experimental: as §1, §2

[4] = Chelation-provoked urine test, metals revealed (in words); details: for metals excreted on provocation: Case 9, postpartum
Experimental: as §1, §2

[5] = Chelation-provoked urine test, urinary lead
Experimental: as §1, §2

[6] = Chelation-provoked urine test, urinary tin; format: in vivo, human; details: for urinary tin: Case 14
Experimental: as §1, §2

[7] = not given; remark: listed apart in the source
[8] = Chelation-provoked urine test, urinary cadmium; format: in vivo, human
Experimental: as §1, §2

[9] = Case 14; remark: listed apart in the source
Experimental: as §1, §2

[10] = Chelation-provoked urine test, urinary uranium; format: in vivo, human; details: for urinary uranium, times the reference range: Case 9
Experimental: as §1, §2

[11] = Maternal chelation treatment, pregnancy, child and patient outcome; format: in vivo, human; details: for chronic fatigue / neurological development of the baby: Case 5; for chronic fatigue: calcium EDTA + vitamin C IV together with oral DMSA; for neurological development of the baby: parent treated preconceptionally with calcium EDTA + vitamin C IV and oral DMSA
[12] = Case 5
Experimental: as §1, §2

[13] = Case 7, one 300-mg capsule DMPS, 6 hour urine
[14] = Case 14, DMPS provocation October 2003, before treatment
[15] = Case 14, DMPS series, follow up October 2005 after oral DMSA and essential daily defense
[16] = Case 14, after series of intravenous DMPS chelation treatments October 2003 to May 2004
[17] = Case 5, DMPS chelation provocation, before treatment
[18] = Case 5, DMPS provocation, previously (before treatment)
[19] = DMPS provocation October 2003, before treatment
[20] = DMPS series, follow up October 2005 after oral DMSA and essential daily defense
[21] = after series of intravenous DMPS chelation treatments October 2003 to May 2004
[22] = Case 7, one 250-mg capsule DMSA orally, 6 hour urine
[23] = DMSA 1000 mg PO x1, 6 hour urine
[24] = Case 2, oral DMSA 250 mg three times a day, 24 hour urine
[25] = Case 4, after 4 months oral DMSA, 4 x 250 mg three times daily, 3 days per week
[26] = Case 4, four capsules DMSA 250 mg, 6 hour urine, before treatment
[27] = Case 5, EDTA provocation, before treatment
[28] = Case 5, EDTA provocation, previously (before treatment)
[29] = Case 14, EDTA series, June 2004 after intravenous EDTA and DMPS chelation treatments
[30] = Case 14, EDTA series, long-term follow up October 2005 after a little DMSA with essential daily defense
[31] = Case 14, intravenous EDTA provocation January 2004, during the treatment period
[32] = Case 13, 3 grams EDTA and 3 grams vitamin C intravenous push, 6 hour collection
[33] = EDTA series, June 2004 after intravenous EDTA and DMPS chelation treatments
[34] = EDTA series, long-term follow up October 2005 after a little DMSA with essential daily defense
[35] = intravenous EDTA provocation January 2004, during the treatment period
[36] = 3 grams calcium EDTA in 100 cc NS over 30 minutes, 6 hour urine

## O=S(=O)(O)CC(S)CS (stereo not shown) [DMPS, Dimercaptopropanesulfonic Acid]
[1]; [13]
  urinary nickel: 132 (normal <9.5)
[1]; [14]
  urinary nickel: 9.3 (normal <9.5) mcg/g creatinine
[1]; [15]
  urinary nickel: 0.7 mcg/g creatinine
[1]; [16]
  urinary nickel: 3.2 mcg/g creatinine
[2]; one 300-mg capsule DMPS
  urinary tungsten: 7.07 (normal <0.34)
[17]
  urinary mercury: 38.55 (normal <6.97) mcg/g creatinine
[18]
  urinary mercury, times normal: 5 × normal
[14]
  urinary mercury: 7.3 (normal <2.14) mcg/g creatinine
[15]
  urinary mercury: 4.6 mcg/g creatinine
[16]
  urinary mercury: 6 mcg/g creatinine
[3]; [19]
  urinary thorium: 0 (normal <0.124) mcg/g creatinine
[3]; [20]
  urinary thorium: 0 mcg/g creatinine
[3]; [21]
  urinary thorium: 0.019 mcg/g creatinine
[4]; Case 10, DMPS 300 mg PO x1, 6 hour urine
  metals revealed on provocation: elevated levels of lead, mercury, aluminum, antimony, cadmium, nickel, tin, tungsten and uranium
[4]; Case 12, DMPS 300 mg PO x2, 6 hour urine
  metals revealed on provocation: marked elevation of nickel as well as abnormally elevation of arsenic, cadmium and lead
[5]; [17]
  urinary lead: 6.39 (normal <1.41) mcg/g creatinine
[5]; [18]
  urinary lead, times normal: 4 × normal
[5]; [13]
  urinary lead: 4.6 (normal <1.41)
[5]; [14]
  urinary lead: 7.9 (normal <1.41) mcg/g creatinine
[5]; [15]
  urinary lead: 2.6 mcg/g creatinine
[5]; [16]
  urinary lead: 0.9 mcg/g creatinine
[6]; [19]
  urinary tin: 10.4 (normal <2.04) mcg/g creatinine
[6]; [20]
  urinary tin: 3.03 mcg/g creatinine
[6]; [21]
  urinary tin: 0.4 mcg/g creatinine
[7]; [17]
  urinary antimony: 0.84 (normal <0.14) mcg/g creatinine
[7]; [18]
  urinary antimony, times normal: 6 × normal
[7]; [14]
  urinary antimony: 0.48 (normal <0.14) mcg/g creatinine
[7]; [15]
  urinary antimony: 0.18 mcg/g creatinine
[7]; [16]
  urinary antimony: 0.05 mcg/g creatinine
[8]; [14]
  urinary cadmium: 0.82 (normal <0.64) mcg/g creatinine
[8]; [15]
  urinary cadmium: 0.17 mcg/g creatinine
[8]; [16]
  urinary cadmium: 0.16 mcg/g creatinine
[9]; [19]
  urinary arsenic: 159 (normal <50) mcg/g creatinine
[9]; [20]
  urinary arsenic: 34 mcg/g creatinine
[9]; [21]
  urinary arsenic: 20 mcg/g creatinine
[10]; [13]
  urinary uranium: 0.034 (normal <0.013)
[10]; [14]
  urinary uranium: 0.042 (normal <0.026) mcg/g creatinine
[10]; [15]
  urinary uranium: 3 mcg/g creatinine
[10]; [16]
  urinary uranium: 0 mcg/g creatinine

## O=C(O)C(S)C(S)C(=O)O (stereo not shown) [DMSA, Dimercaptosuccinic Acid]
[1]; [22]
  urinary nickel: 77 (normal <9.5) mcg/g creatinine
[2]; one 250-mg capsule DMSA orally
  urinary tungsten: 6.41 (normal <0.34) mcg/g creatinine
[4]; Case 6, oral DMSA challenge three days after delivery
  metals revealed by chelation-provoked urine test: presence of both lead and mercury
[4]; [23]
  metals excreted on provocation: excretion of a number of metals, including lead, mercury, cadmium and uranium
[4]; Case 10, DMSA 250 mg PO x1, 6 hour urine
  metals revealed on challenge: elevated amounts of lead, aluminum, antimony, barium, nickel, gallium, tin, tungsten, and uranium
[4]; Case 11, 1000 mg DMSA orally x1, 6 hour urine
  metals revealed on provocation: elevated levels of lead, mercury, tin, uranium and tungsten
[11]; Case 4, during 4 months oral DMSA
  chronic fatigue during treatment: chronic fatigue resolved
[11]
  chronic fatigue: chronic fatigue improved
  neurological development of the baby: above average neurological development
[5]; Case 1, after 15 cycles DMSA three capsules three times a day, three days a week
  follow-up chelation-provoked urine, total body lead: a decrease in total body lead
[5]; Case 1, oral DMSA 250 mg three times a day, 24 hour urine
  urinary lead concentration on provocation: 20 mcg/g creatinine
[5]; [24]
  urinary lead concentration after provocation: 14 mcg/g creatinine
[5]; [25]
  urinary lead, follow up provocation: 1.34 mcg/g creatinine
[5]; [26]
  provoked urinary lead: 13.6 mcg/g creatinine
[5]; [22]
  urinary lead: 4.79 (normal <1.41) mcg/g creatinine
[6]; [24]
  urinary tin after provocation: 9 mcg/g creatinine
[6]; [25]
  urinary tin, follow up provocation: 0.9 mcg/g creatinine
[6]; [26]
  provoked urinary tin: 12.5 mcg/g creatinine
[8]; [25]
  urinary cadmium, follow up provocation: 0.18 mcg/g creatinine
[8]; [26]
  provoked urinary cadmium: 1.79 mcg/g creatinine
[10]; [22]
  urinary uranium: 0.05 (normal <0.031) mcg/g creatinine
[10]; [23]
  urinary uranium, times the reference range: > 100 × the reference range

## O=C(O)CN(CCN(CC(=O)O)CC(=O)O)CC(=O)O [EDTA, Ethylenediamine Tetra-acetic Acid]
[1]; [27]
  urinary nickel: 36.9 (normal <9.5) mcg/g creatinine
[1]; [28]
  urinary nickel, times normal: 4 × normal
[1]; Case 5, repeat EDTA provocation after calcium EDTA + vitamin C IV and oral DMSA treatment
  urinary nickel, times normal: 3 × normal
[1]; [29]
  urinary nickel: 30 mcg/g creatinine
[1]; [30]
  urinary nickel: 26 mcg/g creatinine
[1]; [31]
  urinary nickel: 41 mcg/g creatinine
[32]
  urinary mercury: 3.09 mcg/g creatinine
[29]
  urinary mercury: 0 mcg/g creatinine
[30]
  urinary mercury: 9.4 mcg/g creatinine
[31]
  urinary mercury: 0 mcg/g creatinine
[3]; [33]
  urinary thorium: 0.06 mcg/g creatinine
[3]; [34]
  urinary thorium: 0 mcg/g creatinine
[3]; [35]
  urinary thorium: 0.22 mcg/g creatinine
[4]; [36]
  metals excreted on provocation: significant excretion of lead, mercury, cadmium and uranium
[4]; Case 11, 3 grams calcium EDTA in 100 cc normal saline IV over 30 minutes, 6 hour urine
  metals revealed on provocation: elevated levels of lead, mercury, aluminum, cadmium, gadolinium, gallium, tin, tungsten, and uranium
[11]; Case 8, oral EDTA 3000 mg per day with vitamin C, selenium and garlic
  child outcome after delivery: healthy and neurologically normal
[11]; Case 8, parent with lead and mercury, oral EDTA 3000 mg per day with vitamin C 5000 mg per day, selenium 200 micrograms three times per day, garlic 6000 mg per day
  delivery outcome: normal delivery with no evidence of fetal distress
[11]; Case 13, child, parents had ten intravenous EDTA chelations
  neurological development of the child: admirable neurological development
[5]; [27]
  urinary lead: 25.14 (normal <1.41) mcg/g creatinine
[5]; [28]
  urinary lead, times normal: 18 × normal
[5]; Case 5, repeat EDTA provocation after 3 g calcium EDTA + 3 g vitamin C IV two times per week and DMSA 500 mg per day orally
  urinary lead, times normal: 8 × normal
[5]; [32]
  urinary lead: 6.15 mcg/g creatinine
[5]; [29]
  urinary lead: 5.5 mcg/g creatinine
[5]; [30]
  urinary lead: 7.97 mcg/g creatinine
[5]; [31]
  urinary lead: 4.6 mcg/g creatinine
[6]; [33]
  urinary tin: 0.3 mcg/g creatinine
[6]; [34]
  urinary tin: 0.4 mcg/g creatinine
[6]; [35]
  urinary tin: 0.6 mcg/g creatinine
[12]; EDTA provocation, before treatment
  urinary aluminum: 176.8 (normal <98.7) mcg/g creatinine
[12]; EDTA provocation, previously (before treatment)
  urinary aluminum, times normal: 2 × normal
[12]; repeat EDTA provocation after calcium EDTA + vitamin C IV and oral DMSA treatment
  urinary aluminum, times normal: 0.2 × normal
[7]; [29]
  urinary antimony: 0.15 mcg/g creatinine
[7]; [30]
  urinary antimony: 0.09 mcg/g creatinine
[7]; [31]
  urinary antimony: 0.18 mcg/g creatinine
[8]; [27]
  urinary cadmium: 3.18 (normal <0.76) mcg/g creatinine
[8]; [32]
  urinary cadmium: 0.86 mcg/g creatinine
[8]; [29]
  urinary cadmium: 1.75 mcg/g creatinine
[8]; [30]
  urinary cadmium: 2.66 mcg/g creatinine
[8]; [31]
  urinary cadmium: 1.59 mcg/g creatinine
[9]; [33]
  urinary arsenic: 32 mcg/g creatinine
[9]; [34]
  urinary arsenic: 46 mcg/g creatinine
[9]; [35]
  urinary arsenic: 90 mcg/g creatinine
[10]; [27]
  urinary uranium: 0.33 (normal <0.013) mcg/g creatinine
[10]; [36]
  urinary uranium, times the reference range: > 40 × the reference range
[10]; [30]
  urinary uranium: 0.012 mcg/g creatinine

## CC(=O)N[C@@H](CS)C(=O)O [NAC, N-Acetyl-Cysteine]
[11]; Case 3, 500 mg oral NAC per day throughout pregnancy, also vitamin C and selenium, previous child with attention deficit disorder
  outcome of subsequent child: did not have attention deficit disorder

## O=C([O-])CN(CCN(CC(=O)[O-])CC(=O)[O-])CC(=O)[O-].[Ca+2].[Na+].[Na+] [calcium EDTA]
[11]
  chronic fatigue: chronic fatigue improved
  neurological development of the baby: above average neurological development
